Paper PMC6033896, “Discovery of Mcl-1 inhibitors from integrated high throughput and virtual screening” (Scientific Reports, 2018)
Values joined by “and” are separate entries in the source; they are usually repeats but may differ in a detail not shown here. Equal values may be shown once.

What was measured:
Mcl-1 protein [1] = target: T1, Mcl-1 protein (Homo sapiens, UniProt Q07820); test: SPR-based solution competitive binding assay, immobilized biotin-labelled Bim BH3 peptide; settings: Mcl-1 20 nM; competition with immobilized Bim BH3 peptide
T1 construct: human Mcl-1 (residues 171–323); His tag (pHis-TEV vector) (N, cleaved yes); made in house; host or cells: E. coli BL21 (DE3)
T1 sequence (Q07820 171-323): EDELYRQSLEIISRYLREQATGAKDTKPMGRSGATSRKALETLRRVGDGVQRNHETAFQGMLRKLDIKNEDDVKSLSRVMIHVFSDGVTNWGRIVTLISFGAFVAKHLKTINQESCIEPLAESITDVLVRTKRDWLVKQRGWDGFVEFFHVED
Method: The solution competitive SPR-based assay was performed on Biacore 2000 in a similar way as was already reported. Briefly, N terminal biotin-labelled Bim BH3 peptide (141–166 amino acids) was immobilized on streptavidin (SA) chip giving a density of 800 RU (Response Units). The pre-incubated Mcl-1 protein (20 nM) with tested small-molecule inhibitors for at least 30 min was injected over the surfaces of the chip using assay buffer HBS-P (GE, #BR100368). Response units were measured at 15 s in the dissociation phase, and IC50 values were determined by nonlinear least-squares analysis using GraphPad Prism 6.0 software.

Mcl-1 protein [2] = target: T1, Mcl-1 protein; test: FP-based competitive binding assay with fluorescent labelled Bid BH3 peptide; settings: for Ki: calculated from FP IC50; for IC50: competition with fluorescent Bid probe 2 nM, 20 nM Mcl-1 for purchased compounds, 10 nM for synthesized library
Method: (§1) FP-based binding assays were developed and optimized to determine the binding affinities of inhibitors to the recombinant Mcl-1, Bcl-2, Bcl-xL, and Bfl-1, proteins. […] The fluorescent Bid probe was fixed at 2 nM for all assays, except for Bfl-1, where 1 nM was used. 5 μL of the tested compound in DMSO and 120 μL of protein/probe complex in the assay buffer were added to assay plates (Corning #3792), incubated at room temperature for 3 h, and the polarization values (mP) were measured at an excitation wavelength of 485 nm and an emission wavelength of 530 nm using the plate reader Synergy H1 Hybrid, BioTek. IC50 values were determined by nonlinear regression fitting of the competition curves (GraphPad Prism 6.0 Software). The Ki values were calculated as described previously.
(§2) 1. List of compounds purchased from vendors
(§3) Compound s 5, 6, 7, 8 and S3, S4, S5, S6 S7, S8, S9, S10, S17 were purchased from […]
(§4) Compound s 9, 10, 11 and S11, S12, S13 were purchased from I nterbioscreen […]
His-tagged proteins containing human Mcl-1 (residues 171–323), the isoform 2 construct of the human Bcl-2 [Bcl2-2 construct for protein production starts with the Bcl2 sequence of 1-34 a a, followed by the Bcl-xL seq uence of 35-50 aa, and ends with the Bcl-2 sequenc e of 92-202aa.], Bcl-xL (Human Bcl-xL protein, which has an internal deletion for the 45 -85 amino acid residues and a C -terminal truncation for the amino acid residues 212-233), and Bf l-1 (residues 1-151), were expres sed from the pHis -TEV vector (a modified pET vector) in E. coli BL21 (DE3) cells. Cells were grown at 37 °C in 2×YT containing antibiotics to an OD600 density of 1.5, 1 and 0.8 for Mcl-1, Bcl-xL and Bcl-2 respectively. Protein expression wa s induced by 0 .4 mM IPTG at 20 °C overnight for all proteins except for Bf l-1 which was e xpressed at 3 7 °C for four hours . Cells were lysed in 20 mM HEPES pH 7.5, 200 mM NaCl, 0.1% βME with Leupeptin/Aprotinin (Mcl-1), 25mM Tris pH 8.5, 200mM NaCl (Bcl-2), 50mM Tris pH 7.5, 200 mM NaCl (Bcl-xL) and 50 mM Tris pH 8, 500 mM NaCl, 0. 1% βME with Leupeptin/Aprotinin (Bf l-1). All […]
proteins were purified from the soluble fraction using Ni-NTA resin (QIAGEN), following the manufacturer’s instructions. For purification of TEV-cleaved protein, the amino-terminal His tag was cleaved by incubation with TEV protease and the protein was further purified by anion exchange (Source Q) and gel filtration chromatography (Superdex 75, Amersham Biosciences) in 20mM HEPES pH 7.0, 50 mM NaCl (Mcl-1), […]
NaCl, 0.1% βME (Bcl-xL) and 25 mM Tris pH 7.5, 150 mM NaCl, 25% Glycerol, 0.1% βME ( Bf l-1). His-tagged Mcl-1 protein was used for TR-FRET assay and HSQC-NMR.
His-TEV cleaved Mcl-1, Bcl-2, Bcl-xL, and Bf l-1 were used in fluorescent polarization and surface plasmon resonance binding assays.
Mutant Mcl-1 protein wa s prepared by the QuikChange site -directed mutagenesi s method (Stratagene) , where Arg263 was mutated to Ala. The R263A expression pla smid was transformed into Rosetta2 DE3 cells and purified by the same method as the wildtype protein. Cultures were grown to an OD 600 of 1. 5 at 37 °C in Terrific Broth, induced with 0. 4 mM IPTG, and express ed overnight at 20 °C. The follow-up purification was performed the same way as was for Mcl-1 wild-type recombinant

Mcl-1 protein [3] = target: T1, Mcl-1 protein; test: TR-FRET binding assay with Bid-Dy647 peptide; settings: 10 nM Mcl-1, 10 nM Bid-Dy647
Method: TR-FRET was performed using black 384-well plates in an Envision Multilabel plate reader (Perkin Elmer Life Sciences). To each well, a mixture of 10 nM Bid-Dy647 peptide (79–99), 10 nM Mcl-1 protein, and Europium-anti-His antibody were added to a final volume of 25 μl in the assay buffer (20 mM potassium phosphate, pH 7.5; 50 mM NaCl, 1 mM EDTA and 0.05% Pluronic F68). The TR-FRET signals were measured with an Envision Multilabel plate reader after 2 h of incubation. (Ex 340 nm, Em615 nm and Em665 nm) and expressed as FRET signal ratio (F665 nm/[…] * 104)

Bfl-1 = target: T2, Bfl-1 (Homo sapiens, UniProt Q16548); test: FP-based competitive binding assay with FAM-Bid
T2 construct: Bf l-1 (residues 1-151); His tag (pHis-TEV vector) (N, cleaved yes); made in house; host or cells: E. coli BL21 (DE3)
T2 sequence (Q16548 1-151): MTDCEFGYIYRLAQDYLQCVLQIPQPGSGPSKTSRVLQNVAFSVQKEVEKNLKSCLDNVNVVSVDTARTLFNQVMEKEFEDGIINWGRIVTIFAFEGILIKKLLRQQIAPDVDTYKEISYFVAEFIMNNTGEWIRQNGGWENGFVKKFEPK
Method: as §1, §2, §3, §4
(§5) His-tagged proteins containing human Mcl-1 (residues 171–323), the isoform 2 construct of the human Bcl-2 [Bcl2-2 construct for protein production starts with the Bcl2 sequence of 1-34 a a, followed by the Bcl-xL seq uence of 35-50 aa, and ends with the Bcl-2 sequenc e of 92-202aa.], Bcl-xL (Human Bcl-xL protein, which has an internal deletion for the 45 -85 amino acid residues and a C -terminal truncation for the amino acid residues 212-233), and Bf l-1 (residues 1-151), were expres sed from the pHis -TEV vector (a modified pET vector) in E. coli BL21 (DE3) cells. Cells were grown at 37 °C in 2×YT containing antibiotics to an OD600 density of 1.5, 1 and 0.8 for Mcl-1, Bcl-xL and Bcl-2 respectively. Protein expression wa s induced by 0 .4 mM IPTG at 20 °C overnight for all proteins except for Bf l-1 which was e xpressed at 3 7 °C for four hours . Cells were lysed in 20 mM HEPES pH 7.5, 200 mM NaCl, 0.1% βME with Leupeptin/Aprotinin (Mcl-1), 25mM Tris pH 8.5, 200mM NaCl (Bcl-2), 50mM Tris pH 7.5, 200 mM NaCl (Bcl-xL) and 50 mM Tris pH 8, 500 mM NaCl, 0. 1% βME with Leupeptin/Aprotinin (Bf l-1). All

Bcl-xL = target: T3, Bcl-xL (Homo sapiens, UniProt Q07817, DEL45-85); test: FP-based competitive binding assay with FAM-Bid; settings: FP
T3 construct: His tag (pHis-TEV vector) (N, cleaved yes); made in house; host or cells: E. coli BL21 (DE3)
T3 sequence (Q07817 with tags, fused parts or gaps DEL45-85 limits assumed): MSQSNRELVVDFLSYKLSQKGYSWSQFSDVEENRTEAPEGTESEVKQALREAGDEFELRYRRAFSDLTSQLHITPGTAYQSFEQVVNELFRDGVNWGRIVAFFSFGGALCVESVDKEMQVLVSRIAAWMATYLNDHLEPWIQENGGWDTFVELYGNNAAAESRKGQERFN
Method: as §1, §2, §3, §4, §5

Bcl-2 = target: T4, Bcl-2 (Homo sapiens, UniProt P10415, DEL35-91/INS34DVEENRTEAPEGTESE); test: FP-based competitive binding assay with FAM-Bid; settings: FP
T4 construct: His tag (pHis-TEV vector) (N, cleaved yes); made in house; host or cells: E. coli BL21 (DE3)
T4 sequence (P10415 with tags, fused parts or gaps INS34DVEEN/V35R/G36T/A37E/P40E/DEL42-87/P88T/V89E/P90S/P91E): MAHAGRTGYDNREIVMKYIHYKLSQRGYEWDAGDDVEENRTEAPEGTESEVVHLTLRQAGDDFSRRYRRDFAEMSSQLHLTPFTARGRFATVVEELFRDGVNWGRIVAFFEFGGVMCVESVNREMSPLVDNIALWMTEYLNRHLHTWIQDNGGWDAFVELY
Method: as §1, §2, §3, §4, §5

| SMILES | IC50 (Mcl-1 protein [1]) [µM] | Ki (Mcl-1 protein [2]) [µM] | IC50 (Mcl-1 protein [2]) | IC50 (Mcl-1 protein [3]) [µM] | IC50 (Bfl-1; Bfl-1) [µM] | Ki (Bfl-1; FP) [µM] | IC50 (Bcl-xL) [µM] | Ki (Bcl-xL) [µM] | IC50 (Bcl-2) [µM] | Ki (Bcl-2) [µM] |
| --- | --- | --- | --- | --- | --- | --- | --- | --- | --- | --- |
| O=C(CSc1nnc(-c2cccs2)c(-c2cccs2)n1)Nc1ccccc1 [Compound 25] | > 100 | > 25 | > 100 µM | > 100 | – | – | – | – | – | – |
| O=C(CSc1nnc(-c2ccccc2)c(-c2ccccc2)n1)Nc1ccccc1 [Compound 26] | > 100 | > 5 | > 20 µM | – | – | – | – | – | – | – |
| O=C(CSc1nnc(-c2ccccn2)c(-c2ccccn2)n1)Nc1ccccc1 [Compound 27] | > 100 | > 12.5 | > 50 µM | – | – | – | – | – | – | – |
| CCc1ccc(NC(=O)CSc2nnc(-c3ccco3)c(-c3ccco3)n2)cc1 [Compound 28] | 14.3 ± 2 | 1.2 ± 0.1 | 5 ± 0.3 µM | 5.5 ± 1.8 | – | – | – | – | – | – |
| COc1ccc(NC(=O)CSc2nnc(-c3ccco3)c(-c3ccco3)n2)cc1 [Compound 30] | 47.4 ± 3.9 | 7.8 ± 1.8 | 33 µM and 33.1 µM | – | – | – | – | – | – | – |
| O=C(CSc1nnc(-c2ccco2)c(-c2ccco2)n1)Nc1ccc(Oc2ccccc2)cc1 [Compound 31] | – | 1.6 ± 0.4 | 6.9 ± 1.9 µM | 9 ± 3.8 | – | – | – | – | – | – |
| CN(C)c1ccc(NC(=O)CSc2nnc(-c3ccco3)c(-c3ccco3)n2)cc1 [Compound 32] | > 100 | > 25 | > 100 µM | > 80 | – | – | – | – | – | – |
| Nc1ccc(NC(=O)CSc2nnc(-c3ccco3)c(-c3ccco3)n2)cc1 [Compound 33] | > 100 | > 25 | > 100 µM | – | – | – | – | – | – | – |
| O=C(CSc1nnc(-c2ccco2)c(-c2ccco2)n1)Nc1ccc(F)cc1 [Compound 34] | 12.5 ± 1.7 | 1.9 ± 0.2 | 8.1 ± 0.8 µM | 11.6 ± 4 | – | – | – | – | – | – |
| O=C(CSc1nnc(-c2ccco2)c(-c2ccco2)n1)Nc1ccc(-c2ccccc2)cc1 [Compound 35] | 5.1 ± 2.3 | 0.6 ± 0.1 | 2.5 ± 0.1 µM | 5 ± 2.7 | – | – | – | – | – | – |
| O=C(CSc1nnc(-c2ccco2)c(-c2ccco2)n1)Nc1ccc(Cc2ccccc2)cc1 [Compound 36] | 4.2 ± 0.4 | 0.6 ± 0.1 | 2.5 ± 0.6 µM | 5.1 ± 1.5 | – | – | – | – | – | – |
| CCc1cccc(NC(=O)CSc2nnc(-c3ccco3)c(-c3ccco3)n2)c1 [Compound 37] | – | 1.2 ± 0.1 | 5.3 ± 0.5 µM | – | – | – | – | – | – | – |
| O=C(CSc1nnc(-c2ccco2)c(-c2ccco2)n1)Nc1cccc(-c2ccccc2)c1 [Compound 40] | 7.3 ± 2.1 | 1 ± 0.4 | 4.1 ± 1.5 µM | 7.9 ± 4.7 | – | – | – | – | – | – |
| O=C(CSc1nnc(-c2ccco2)c(-c2ccco2)n1)Nc1ccccc1-c1ccccc1 [Compound 41] | 1.9 ± 0.7 | 1 ± 0.1 | 4.4 ± 0.5 µM | 12.7 ± 4.5 | – | – | – | – | – | – |
| c1ccc(CCCSc2nnc(-c3ccco3)c(-c3ccco3)n2)cc1 [Compound 42] | – | 0.4 ± 0.1 | 1.5 ± 0.3 µM | 2.4 ± 0.1 | 11.4 ± 0.1 | 1.6 ± 0.1 | > 100 | > 20 | > 100 | > 25 |
| c1ccc(CCSc2nnc(-c3ccco3)c(-c3ccco3)n2)cc1 [Compound 43] | – | 0.5 ± 0.1 | 2.2 ± 0.2 µM | 5.2 ± 0.1 | – | – | – | – | – | – |
| O=C(Nc1ccccc1)c1ccc2nc(-c3ccco3)c(-c3ccco3)nc2c1 [Compound 45] | – | > 12.5 | > 50 µM | – | – | – | – | – | – | – |
| Cc1ccc(NC(=O)c2ccc3nc(-c4ccco4)c(-c4ccco4)nc3c2)cc1 [Compound 46] | – | 15.8 ± 2.3 | 67.1 ± 9.1 µM | – | – | – | – | – | – | – |
